Source: PubChem BioAssay (NCI)
Where “and” joins values, the source holds several entries; their conditions need not be identical. Equal values may be shown once.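 The compound was tested at five concentrations on cells cultured in 96-well plates, with a 48-hour exposure period. GI50 is the concentration that inhibits growth by half. TGI: concentration producing complete growth inhibition.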

How the values were obtained:
Experiment in all cases: NCI anticancer screen, dose series, 48 h
[1] = system: BT-549 breast
[2] = system: HCT-15 colon
[3] = system: HS 578T breast
[4] = system: LOX IMVI melanoma
[5] = system: MCF7 breast
[6] = system: MDA-MB-435
[7] = system: NCI-H226 lung
[8] = system: NCI/ADR-RES ovarian
[9] = system: OVCAR-4 ovarian
[10] = system: RXF 393 renal
[11] = system: SN12C renal
[12] = system: SNB-75 CNS
[13] = system: SR leukemia
[14] = system: TK-10 renal
[15] = system: U251 CNS
[16] = system: UACC-257 melanoma
[17] = system: UACC-62 melanoma
[18] = system: UO-31 renal

Compound	TGI [1] [µM]	TGI [2] [µM]	TGI [3] [µM]	TGI [4] [µM]	TGI [5] [µM]	TGI [6] [µM]	TGI [7] [µM]	TGI [8] [µM]	TGI [9] [µM]	TGI [10] [µM]	TGI [11] [µM]	TGI [12] [µM]	TGI [13] [µM]	TGI [14] [µM]	TGI [15] [µM]	TGI [16]	TGI [17] [µM]	TGI [18] [µM]	GI50 [3]
COc1ccccc1NC(=O)/C(Cc1nc2ccc([N+](=O)[O-])cc2[nH]c1=O)=N\NC(=O)C[N+](C)(C)C	> 100	> 100	> 100	> 100	> 100	> 100	> 100	> 100	> 100	> 100	> 100	> 100	6.47	> 100	> 100	> 100 µM	> 100	> 100	–
COC(=O)c1c2n(c3ccccc13)C[C@H]1OC(C)(C)O[C@@H]21	> 100	> 100	> 100	> 100	> 100	> 100	> 100	> 100	> 100	> 100	> 100	> 100	> 100	> 100	> 100	> 100 µM	> 100	> 100	–
Cc1cc(=O)[nH]c(NN2C(Cl)C(=O)C2c2ccc(Cl)cc2)n1 (stereo not drawn)	86.9	> 53.8	93.5	15.1	42.5	60	42	54.9	> 64.7	45.1	35.7	42.5	6.22	48.6	52.4	> 55.1 µM	39.9	> 60.9	–
CC1=C(N2CC2)C(=O)c2nc3n(c2C1=O)CCC3OC(=O)CCl (stereo not drawn)	0.0444	0.0825	0.0784	0.117	0.0468	0.112	0.17	0.0862	0.218	0.069	0.267	0.05	13.6	0.639	0.237	0.235 µM	0.0696	0.0944	–
N#C/C(=C\c1ccccc1)C(=O)Nc1nnc(-c2ccccc2)o1	> 100	> 100	> 100	> 100	> 100	> 100	> 100	> 100	> 100	> 100	> 100	> 100	93.2	> 100	> 100	87.4 µM	53.7	> 100	–
O=c1oc2ccccc2c(Nc2ccc3c(c2)S(=O)(=O)c2ccccc2O3)c1[N+](=O)[O-]	70.4	> 100	> 100	> 100	56.6	97.3	74.9	> 100	73.5	51.2	92.9	52.4	72.6	62.6	42.1	58.8 µM	40	99.4	–
O=C(O[C@H]1[C@@H](O)[C@H](n2cnc3c(Cl)ncnc32)O[C@@H]1COC(c1ccccc1)(c1ccccc1)c1ccccc1)c1ccccc1	97.7	> 100	8.78	> 100	23.4	> 100	> 100	> 100	> 100	48.1	30.6	> 100	18.6	> 100	59.2	41.5 µM	> 100	2.73	–
O=C(NCc1cccnc1)NCc1cccnc1	> 100	> 100	> 100	> 100	> 100	> 100	> 100	> 100	> 100	> 100	> 100	> 100	> 100	> 100	> 100	> 100 µM	> 100	> 100	–
Cc1cc(C)c(C2=NOC(c3ccccc3)(c3cc(=O)n(-c4ccccc4)s3)O2)c(C)c1 (stereo not drawn)	52.4	41	> 100	30.7	37.2	> 100	57.1	68.1	> 100	33.3	> 100	> 100	> 100	77.1	66.4	> 100 µM	51.5	47.1	–
Cc1c(/C=N/NC(=S)Nc2ccccc2Cl)c(=O)n(-c2ccccc2)n1C	> 100	> 100	85.3	> 100	> 100	> 100	> 100	76.1	> 100	47.9	> 100	54.6	> 100	91.7	> 100	> 100 µM	> 100	> 100	–
COc1ccc(NC(=O)CC(=O)N2N=C(C)C(N=Nc3ccc(S(=O)(=O)c4ccc(N=NC5C(=O)N(C(=O)CC(=O)Nc6ccc(OC)cc6)N=C5C)cc4)cc3)C2=O)cc1 (stereo not drawn)	> 100	> 100	> 100	> 100	> 100	> 100	> 100	> 100	> 100	> 100	> 100	> 100	> 100	> 100	> 100	> 100 µM	> 100	> 100	–
C#CCOCC12C=CC(O1)C1C(=O)N(C)C(=O)C12 (stereo not drawn)	> 100	> 100	> 100	> 100	> 100	> 100	> 100	> 100	> 100	> 100	> 100	> 100	> 100	> 100	> 100	21 µM and > 100 µM	> 100	> 100	> 100 µM and 20 µM
CC(=O)OC1C(O)COC(O[C@H]2CC[C@]34C[C@]35CC[C@]3(C)C([C@@]6(C)CC[C@@H](C(C)(C)O)O6)[C@@H](O)C[C@@]3(C)C5C[C@H](OC3OCC(O)C(O)C3O)[C@H]4C2(C)C)C1OC1OCC(O)C(O)C1O (stereo partly drawn)	> 100	> 100	> 100	> 100	> 100	> 100	> 100	> 100	> 100	> 100	> 100	> 100	> 100	> 100	> 100	> 100 µM	> 100	> 100	–
O=C(NNC1=NCCN1)c1ccco1	> 100	> 100	> 100	> 100	> 100	> 100	> 100	> 100	> 100	> 100	> 100	> 100	> 100	> 100	> 100	> 100 µM	> 100	> 100	–
O=c1cc(-c2cccc(Cl)c2)[nH]c2ncccc12	> 100	> 100	13	> 100	> 100	0.0382	> 100	> 100	> 100	40.1	30.5	> 56.1	> 100	> 100	29.3	> 100 µM	> 100	> 54	–
COC(=O)c1ccc2c(O)c(O)ccc2c1	27.2	27.8	> 69.2	11.5	36.6	3.3	46.1	48.1	28.3	31.4	23	25.4	7.06	36.2	27.5	28.1 µM	29.4	36.4	–
CCC1C(c2cc(OC)c(OC)c(OC)c2)c2cc3c(cc2OC1N1CCCC1)OCO3 (stereo not drawn)	49.4	27.2	14.1	22	13.7	1.07	8.78	7.03	> 76	9.31	31.8	31.4	> 47.6	40.3	11.7	55.6 µM	23.4	23.1	–
CCCN(C(=O)c1c(Cl)nnc(Cl)c1C(=O)c1cc(Cl)nnc1Cl)c1cc(Cl)nnc1Cl	32.9	18.5	14.9	18.5	16.8	37	57.3	69.1	38.1	8.49	26.1	32.5	20.3	32.2	33.3	42.1 µM	24.9	33.2	–
O=C(NCCCCCCCCNC(=O)c1cc(-c2ccccc2)nc2ccccc12)c1cc(-c2ccccc2)nc2ccccc12	> 100	> 100	> 100	> 100	> 100	> 100	> 100	> 100	> 100	84.4	> 100	> 100	> 100	> 100	> 100	> 100 µM	> 100	> 100	–
